ChEMBL document CHEMBL5137049, “Discovery of a Novel Small-Molecule Inhibitor Disrupting TRBP-Dicer Interaction against Hepatocellular Carcinoma via the Modulation of microRNA Biogenesis” (J Med Chem, 2022)
pEC50: −log10 of the molar value. Active and inactive are the calls of the source. The rule behind the calls is not given here.

Legend:
SK-HEP1 [1] = experiment: Upregulation of PTEN protein expression in human SK-HEP1 cells incubated for 24 hrs by Western blotting analysis; type: functional, cell-based; details: dose 1-50 µM, DDE = dose-dependent effect
[2] = Inhibition of microRNA in human HeLa cells transfected with pCI-neo-luciferase-miR-21 plasmid assessed as increase in luciferase activity by luciferase reporter assay; type: cell-based
HeLa [3] = experiment: Downregulation of miR-214 expression in human HeLa cells at 10 uM incubated for 6 hrs by qRT-PCR analysis; type: functional
HeLa [4] = experiment: Downregulation of miR-30A expression in human HeLa cells at 10 uM incubated for 6 hrs by qRT-PCR analysis; type: functional
HepG2 [5] = experiment: Downregulation of miR-21 expression in human HepG2 cells at 10 uM incubated for 6 hrs by qRT-PCR analysis; type: functional
HepG2 [6] = experiment: Downregulation of miR-122 expression in human HepG2 cells at 10 uM incubated for 6 hrs by qRT-PCR analysis; type: functional
HCCLM3 [7] = experiment: Antiproliferative activity against human HCCLM3 cells assessed as inhibition of cell growth incubated for 72 hrs by CellTiter-luminescence assay; type: functional, cell-based
SK-HEP1 [8] = experiment: Inhibition of cell migration in human SK-HEP1 cells assessed as reduction of cell mobility at 1 to 25 uM measured at 24 hrs by well scratch method; type: functional, cell-based; details: dose 1-25 µM
HCCLM3 [9] = experiment: Inhibition of cell invasion in human HCLLM3 cells at 1 to 25 uM measured after 24 hrs by crystal violet staining based transwell assay; type: functional; details: dose 1-25 µM
MHCC97-L [10] = experiment: Inhibition of cell invasion in human MHCC97-L cells at 1 to 25 uM measured after 24 hrs by crystal violet staining based transwell assay; type: functional; details: dose 1-25 µM
SK-HEP1 [11] = experiment: Upregulation of E-cadherin expression in human SK-HEP1 cells at 1 to 25 uM by Western blotting analysis; type: functional, cell-based; details: dose 1-25 µM
[12] = Acute toxicity in KM mouse assessed as effect on kidney at 100 mg/kg, ip administered for 7 consecutive days by hematoxyin-eosin staining based analysis; type: organism-based; details: in vivo, 168 h, time 7 day
[13] = Toxicity in SCID mouse xenografted with human MHCC97-L cells assessed as change in body weight at 10 to 50 mg/kg, ip administered every 2 days for 4 weeks and measured on alternate days; type: organism-based; details: in vivo, 672 h, dose 10-50 mg/kg
[14] = Toxicity in SCID mouse xenografted with human MHCC97-L cells assessed as effect on heart at 10 to 50 mg/kg, ip administered every 2 days for 4 weeks by hematoxyin-eosin staining based analysis; type: organism-based; details: in vivo, 672 h, dose 10-50 mg/kg
[15] = Toxicity in SCID mouse xenografted with human MHCC97-L cells assessed as effect on liver at 10 to 50 mg/kg, ip administered every 2 days for 4 weeks by hematoxyin-eosin staining based analysis; type: organism-based; details: in vivo, 672 h, dose 10-50 mg/kg
[16] = Toxicity in SCID mouse xenografted with human MHCC97-L cells assessed as effect on lung at 10 to 50 mg/kg, ip administered every 2 days for 4 weeks by hematoxyin-eosin staining based analysis; type: organism-based; details: in vivo, 672 h, dose 10-50 mg/kg
SK-HEP1 [17] = experiment: Antitumor activity against human SK-HEP1 cells xenografted in SCID mouse assessed as reduction in number of intrahepatic migration lesions at 10 to 25 mg/kg, ip administered every 2 days for 4 weeks by hematoxyin-eosin staining based analysis; type: functional, organism-based; details: dose 10-25 mg/kg
Mus musculus [18] = experiment: Upregulation of E-cadherin expression in liver of SCID mouse xenografted with human SK-HEP1 cells at 10 to 50 mg/kg, ip administered every 2 days for 4 weeks by immunohistochemical staining analysis; type: functional, organism-based; details: dose 10-50 mg/kg
Mus musculus [19] = experiment: Downregulation of vimentin expression in liver of SCID mouse xenografted with human SK-HEP1 cells at 10 to 50 mg/kg, ip administered every 2 days for 4 weeks by immunohistochemical staining analysis; type: functional, organism-based; details: dose 10-50 mg/kg
SK-HEP1 [20] = experiment: Downregulation of miR-18a expression in human SK-HEP1 cells at 10 uM by qRT-PCR analysis; type: functional, cell-based
SK-HEP1 [21] = experiment: Upregulation of miR-125 expression in human SK-HEP1 cells at 10 uM by qRT-PCR analysis; type: functional, cell-based
MHCC97-L [22] = experiment: Downregulation of miR-135 expression in human MHCC97-L cells at 10 uM by qRT-PCR analysis; type: functional, cell-based
MHCC97-L [23] = experiment: Upregulation of miR-125 expression in human MHCC97-L cells at 10 uM by qRT-PCR analysis; type: functional, cell-based
HCCLM3 [24] = experiment: Downregulation of miR-18a expression in human HCCLM3 cells at 10 uM by qRT-PCR analysis; type: functional, cell-based
HCCLM3 [25] = experiment: Downregulation of miR-135 expression in human HCCLM3 cells at 10 uM by qRT-PCR analysis; type: functional, cell-based
HCCLM3 [26] = experiment: Upregulation of miR-125 expression in human HCCLM3 cells at 10 uM by qRT-PCR analysis; type: functional, cell-based
SK-HEP1 [27] = experiment: Upregulation of PDCD4 protein expression in human SK-HEP1 cells incubated for 24 hrs by Western blotting analysis; type: functional, cell-based; details: dose 1-50 µM, DDE = dose-dependent effect
SK-HEP1 [28] = experiment: Downregulation of PTEN protein expression in pCMV3-TRBP transfected human SK-HEP1 cells at 10 uM incubated for 24 hrs by Western blotting analysis; type: functional, cell-based
SK-HEP1 [29] = experiment: Upregulation of E-cadherin expression level in TRBP siRNA transfected human SK-HEP1 cells incubated for 48 hrs by Western blotting analysis; type: functional, cell-based
HeLa [30] = experiment: Upregulation of pri-miR-214 in human HeLa cells at 10 uM incubated for 6 hrs by qRT-PCR analysis; type: functional, cell-based
HeLa [31] = experiment: Upregulation of pri-miR-30a in human HeLa cells at 10 uM incubated for 6 hrs by qRT-PCR analysis; type: functional, cell-based
HepG2 [32] = experiment: Upregulation of pri-miR-21 in human HepG2 cells at 10 uM incubated for 6 hrs by qRT-PCR analysis; type: functional, cell-based
HepG2 [33] = experiment: Upregulation of pri-miR-122 in human HepG2 cells at 10 uM incubated for 6 hrs by qRT-PCR analysis; type: functional, cell-based
HepG2 [34] = experiment: Upregulation of pri-miR-221 in human HepG2 cells at 10 uM incubated for 6 hrs by qRT-PCR analysis; type: functional, cell-based
HeLa [35] = experiment: Upregulation of pre-miR-21 in human HeLa cells at 10 uM incubated for 6 hrs by qRT-PCR analysis; type: functional, cell-based
HeLa [36] = experiment: Upregulation of pre-miR-214 in human HeLa cells at 10 uM incubated for 6 hrs by qRT-PCR analysis; type: functional, cell-based
HeLa [37] = experiment: Upregulation of pre-miR-30a in human HeLa cells at 10 uM incubated for 6 hrs by qRT-PCR analysis; type: functional, cell-based
HepG2 [38] = experiment: Upregulation of pre-miR-122 in human HepG2 cells at 10 uM incubated for 6 hrs by qRT-PCR analysis; type: functional, cell-based
Homo sapiens = organism: Homo sapiens; experiment: Effect on ADAR1-Dicer interaction (unknown origin) assessed as increase in binding of ADAR1 to Dicer at 1 to 25 uM by Western blotting analysis; details: dose 1-25 µM
HeLa [39] = experiment: Inhibition of microRNA in human HeLa cells transfected with pCI-neo-luciferase-miR-21 plasmid assessed as change in luciferase signal by measuring relative luciferase unit by luciferase reporter assay; type: cell-based

Structure (SMILES): CCOC(=O)c1nc(-c2ccc(OC)cc2)oc1C
- Activity (SK-HEP1 [1]): Dde
- pEC50 [2]: 5.86
- Activity (HeLa [3]): 60%
- Activity (HeLa [4]): 60%
- Activity (HepG2 [5]): 60%
- Activity (HepG2 [6]): 60%
- Activity (HCCLM3 [7]): Active
- inhibition (SK-HEP1 [8]): Active
- inhibition (HCCLM3 [9]): Active
- inhibition (MHCC97-L [10]): Active
- Activity (SK-HEP1 [11]): Active
- Activity [12]: Non-Toxic
- Activity [13]: Non-Toxic
- Activity [14]: Non-Toxic
- Activity [15]: Non-Toxic
- Activity [16]: Non-Toxic
- Activity (SK-HEP1 [17]): Active
- Activity (Mus musculus [18]): Active
- Activity (Mus musculus [19]): Active
- Activity (SK-HEP1 [20]): Active
- Activity (SK-HEP1 [21]): Active
- Activity (MHCC97-L [22]): Active
- Activity (MHCC97-L [23]): Active
- Activity (HCCLM3 [24]): Active
- Activity (HCCLM3 [25]): Active
- Activity (HCCLM3 [26]): Active
- Activity (SK-HEP1 [27]): Dde
- Activity (SK-HEP1 [28]): Active
- Activity (SK-HEP1 [29]): Active
- Activity (HeLa [30]): Active
- Activity (HeLa [31]): Active
- Activity (HepG2 [32]): Active
- Activity (HepG2 [33]): Active
- Activity (HepG2 [34]): Active
- Activity (HeLa [35]): Active
- Activity (HeLa [36]): Active
- Activity (HeLa [37]): Active
- Activity (HepG2 [38]): Active
- Activity (Homo sapiens): Active
- RLU (HeLa [39]): 5.68
